Marks after values point to notes of the source that are not given here.
Experiments:
[1] = tested on: Plasmopara viticola; test: Test D: grape downy mildew, spray after inoculation of grape seedlings; type: in vivo
Excerpt: Upon removal, disease ratings were made. […] A dash (-) indicates no test results.

[2] = tested on: Phytophthora infestans; test: whole plant or invertebrate; type: in vivo
[3] = tested on: Septoria tritici; test: Test J: wheat leaf blotch, preventive spray on wheat seedlings; type: in vivo
Excerpt: A dash (-) indicates no test results.

[4] = tested on: fusarium graminearium; test: Test I: wheat head scab, preventive spray on wheat seedlings
Protocol: (the causal agent of wheat head scab) and incubated in a saturated atmosphere at 20° C. for 72 h, and then moved to a growth chamber at 22° C. for 5 days, after which disease ratings were made.

[5] = tested on: Puccinia recondita f. sp. tritici; test: Test K: wheat leaf rust, preventive spray on wheat seedlings
[6] = tested on: Botrytis cinerea; test: Test E: tomato botrytis, preventive spray on tomato seedlings
[7] = tested on: Septoria nodorum; test: Test H: wheat glum blotch, preventive spray on wheat seedlings
Protocol: (the causal agent of wheat glum blotch) and incubated in a saturated atmosphere at 20° C. for 48 h, and then moved to a growth chamber at 22° C. for 5 days, after which disease ratings were made.

[8] = tested on: Erysiphe graminis f. sp. tritici; test: Test L: wheat powdery mildew, preventive spray on wheat seedlings
[9] = tested on: Sclerotinia sclerotiorum; test: Test C: cucumber white mold, preventive spray on cucumber seedlings
[10] = tested on: Pythium aphanidermatum; test: Test A: bluegrass pythium blight, preventive spray on bluegrass seedlings
[11] = tested on: Rhizoctonia oryzae; test: Test G: turf brown patch, preventive spray on creeping bent grass seedlings
Protocol: (the causal agent of turf brown patch) and incubated in a saturated atmosphere at 27° C. for 24 h, and then moved to a growth chamber at 27° C. for 5 days, after which disease ratings were made.

[12] = tested on: Colletotrichum orbiculare; test: Test B: cucumber Colletotrichum anthracnose, preventive spray on cucumber seedlings
[13] = 200 ppm, 100 = 100% disease control, 0 = no control
[14] = 40 ppm (marked *), 100 = 100% disease control, 0 = no control

| SMILES | Test J disease control rating ([3]; 40 ppm (*)) | Test K disease control rating ([5]; 40 ppm (*)) | Test E disease control rating ([6]; 40 ppm (*)) | Test H disease control rating ([7]; 40 ppm (*)) | Test L disease control rating ([8]; 40 ppm (*)) | Test G disease control rating ([11]; 40 ppm (*)) | Test B disease control rating ([12]; 40 ppm (*)) | Test D disease control rating [1, 14] | Test F disease control rating [2, 14] | Test J disease control rating [3, 14] | Test I disease control rating [4, 14] | Test K disease control rating [5, 14] | Test E disease control rating [6, 14] | Test H disease control rating [7, 14] | Test L disease control rating [8, 14] | Test C disease control rating [9, 14] | Test A disease control rating [10, 14] | Test G disease control rating [11, 14] | Test B disease control rating [12, 14] | also measured |
| --- | --- | --- | --- | --- | --- | --- | --- | --- | --- | --- | --- | --- | --- | --- | --- | --- | --- | --- | --- | --- |
| Cc1ccn(-c2nc(Cl)c(C3CCCCC3)n(CC(C)C)c2=O)n1 [compound 294] | – | – | – | – | – | – | – | – | – | – | – | – | – | – | – | – | – | – | – | Test D disease control rating [1, 13]: 0%; Test F disease control rating [2, 13]: 0%; Test J disease control rating [3, 13]: 95%; Test I disease control rating [4, 13]: 0%; Test K disease control rating [5, 13]: 54%; Test E disease control rating [6, 13]: 31%; Test H disease control rating [7, 13]: 0%; Test L disease control rating [8, 13]: 0%; Test C disease control rating [9, 13]: 0%; Test A disease control rating [10, 13]: 0%; Test G disease control rating [11, 13]: 0%; Test B disease control rating [12, 13]: 0% |
| COC(=O)c1ccc(-c2c(Cl)nc(-n3cncn3)c(=O)n2CC(C)C)cc1 [compound 146] | 5* % | 0* % | 0* % | 0* % | 0* % | 0* % | 0* % | – | – | – | – | – | – | – | – | – | – | – | – | Test D disease control rating ([1]; 40 ppm (*)): 0* %; Test F disease control rating ([2]; 40 ppm (*)): 0* %; Test I disease control rating ([4]; 40 ppm (*)): 0* %; Test C disease control rating ([9]; 40 ppm (*)): 0* %; Test A disease control rating ([10]; 40 ppm (*)): 0* % |
| CCC(C)Cn1c(-c2ccc(F)cc2Cl)c(Cl)nc(-n2ccc(Br)n2)c1=O (racemic) [compound 259] | – | – | – | – | – | – | – | – | – | – | – | – | – | – | – | – | – | – | – | Test D disease control rating [1, 13]: 0%; Test F disease control rating [2, 13]: 0%; Test J disease control rating [3, 13]: 100%; Test I disease control rating [4, 13]: 0%; Test K disease control rating [5, 13]: 89%; Test E disease control rating [6, 13]: 100%; Test H disease control rating [7, 13]: 0%; Test L disease control rating [8, 13]: 59%; Test C disease control rating [9, 13]: 0%; Test A disease control rating [10, 13]: 82%; Test G disease control rating [11, 13]: 16%; Test B disease control rating [12, 13]: 94% |
| Cc1cc(C)c(-c2c(Cl)nc(-n3ccc(C)n3)c(=O)n2CC(C)C)c(C)c1 [compound 258] | – | – | – | – | – | – | – | 0* % | 0* % | 82* % | 0* % | 41* % | 59* % | 0* % | 0* % | 49* % | 0* % | 0* % | 0* % | – |
| CC(C)Cn1c(-c2ccc(C(C)(C)C)cc2)c(Cl)nc(-n2cccn2)c1=O [compound 74] | 26* % | 80* % | 0* % | 0* % | 75* % | 0* % | 0* % | – | – | – | – | – | – | – | – | – | – | – | – | Test D disease control rating ([1]; 200 ppm): 0%; Test F disease control rating ([2]; 200 ppm): 0%; Test I disease control rating ([4]; 200 ppm): 0%; Test C disease control rating ([9]; 200 ppm): 0%; Test A disease control rating ([10]; 200 ppm): 0% |
| COC(=O)C(C)=NNc1nc(Cl)c(-c2c(F)cccc2F)n(CC(C)C)c1=O [compound 78] | – | – | – | – | – | – | – | – | – | – | – | – | – | – | – | – | – | – | – | Test D disease control rating ([1]; 200 ppm): 0%; Test F disease control rating ([2]; 200 ppm): 0%; Test J disease control rating ([3]; 200 ppm): 91%; Test I disease control rating ([4]; 200 ppm): 0%; Test K disease control rating ([5]; 200 ppm): 0%; Test E disease control rating ([6]; 200 ppm): 0%; Test H disease control rating ([7]; 200 ppm): 0%; Test L disease control rating ([8]; 200 ppm): 0%; Test C disease control rating ([9]; 200 ppm): 0%; Test A disease control rating ([10]; 200 ppm): 0%; Test G disease control rating ([11]; 200 ppm): 0%; Test B disease control rating ([12]; 200 ppm): 0% |
| O=c1c(-n2cccn2)nc(Cl)c(-c2c(F)cccc2F)n1CCBr [compound 270] | – | – | – | – | – | – | – | 24* % | 0* % | 95* % | 0* % | 94* % | 85* % | 0* % | 0* % | 0* % | 0* % | 0* % | 0* % | – |
| CCC(C)Cn1c(-c2c(F)cccc2F)c(Cl)nc(C(=O)NC(C)C)c1=O (stereo not drawn) [compound 296] | – | – | – | – | – | – | – | – | – | – | – | – | – | – | – | – | – | – | – | Test D disease control rating [1, 13]: 53%; Test F disease control rating [2, 13]: 0%; Test J disease control rating [3, 13]: 100%; Test I disease control rating [4, 13]: 0%; Test K disease control rating [5, 13]: 100%; Test E disease control rating [6, 13]: 100%; Test H disease control rating [7, 13]: 100%; Test L disease control rating [8, 13]: 93%; Test C disease control rating [9, 13]: 85%; Test A disease control rating [10, 13]: 0%; Test G disease control rating [11, 13]: 0%; Test B disease control rating [12, 13]: 93% |
| N#Cc1nc(Cl)c(-c2c(F)cccc2F)n(Cc2cccc(Cl)c2)c1=O [compound 277] | – | – | – | – | – | – | – | 0* % | 0* % | 63* % | 0* % | 41* % | 0* % | 0* % | 0* % | 0* % | 0* % | 0* % | 0* % | – |
| Cc1ccn(-c2nc(Br)c(-c3c(F)cccc3F)n(CC(C)C)c2=O)n1 [compound 242] | 100* % | 92* % | 100* % | 94* % | 99* % | 82* % | 73* % | – | – | – | – | – | – | – | – | – | – | – | – | Test D disease control rating ([1]; 40 ppm (*)): 0* %; Test F disease control rating ([2]; 40 ppm (*)): 0* %; Test I disease control rating ([4]; 40 ppm (*)): 0* %; Test C disease control rating ([9]; 40 ppm (*)): 0* %; Test A disease control rating ([10]; 40 ppm (*)): 0* % |
| CC[C@H](C)Cn1c(-c2ccc(F)cc2Cl)c(Br)nc(-n2ccc(C)n2)c1=O [compound 282] | – | – | – | – | – | – | – | 0* % | 0* % | 100* % | 0* % | 100* % | 100* % | 99* % | 100* % | 0* % | 0* % | 0* % | 100* % | – |
| CC(C)Cn1c(-c2cc(Cl)cc(Cl)c2)c(Cl)nc(-n2cncn2)c1=O [compound 116] | 5* % | 0* % | 0* % | 0* % | 0* % | 0* % | 0* % | – | – | – | – | – | – | – | – | – | – | – | – | Test D disease control rating ([1]; 200 ppm): 0%; Test F disease control rating ([2]; 200 ppm): 53%; Test I disease control rating ([4]; 200 ppm): 0%; Test C disease control rating ([9]; 200 ppm): 0%; Test A disease control rating ([10]; 200 ppm): 0% |

Reference: patent US20080194585A1, “Fungicidal Pyrazine Derivatives” (priority 2005, published 2008)
